Results: PubChem BioAssay AID1963424 (Molecular Pharmacology Branch, DTP, NCI, 2024)
Values joined by “and” are separate entries in the source; they are usually repeats but may differ in a detail not shown here. Equal entries are not always repeated.

Test system: 327498-153-R-J2-PDC complex spheroid growth, % test/control
Experiment: Anticancer human tumor 327498-153-R-J2-PDC patient-derived uterine carcinosarcoma cell line growth inhibition [Asc]
Details: for viability, T/C: stronger effect = lower value; active = viability on the fitted dose curve at most 10% of control; inactive = the rest
In short: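 Tumor cells were grown as complex spheroids with human endothelial cells (HUVEC) and human mesenchymal stem cells as stroma. Agents were tested alone and in combination, in half-log steps down from the clinical Cmax, or from 10 microM where Cmax was unknown.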

[1] = curve of first compound, second compound 0.1 µM
[2] = curve of first compound, second compound 0.316 µM
[3] = curve of first compound, second compound 1 µM
[4] = curve of first compound, second compound 3.16 µM
[5] = curve of first compound, second compound 10 µM
[6] = second compound 0.1 µM, first compound 0.000316 µM
[7] = second compound 0.1 µM, first compound 0.001 µM
[8] = second compound 0.1 µM, first compound 0.00316 µM
[9] = second compound 0.1 µM, first compound 0.01 µM
[10] = second compound 0.1 µM, first compound 0.0316 µM
[11] = second compound 0.1 µM, first compound 0.1 µM
[12] = second compound 0.316 µM, first compound 0.000316 µM
[13] = second compound 0.316 µM, first compound 0.001 µM
[14] = second compound 0.316 µM, first compound 0.00316 µM
[15] = second compound 0.316 µM, first compound 0.01 µM
[16] = second compound 0.316 µM, first compound 0.0316 µM
[17] = second compound 0.316 µM, first compound 0.1 µM
[18] = second compound 1 µM, first compound 0.000316 µM
[19] = second compound 1 µM, first compound 0.001 µM
[20] = second compound 1 µM, first compound 0.00316 µM
[21] = second compound 1 µM, first compound 0.01 µM
[22] = second compound 1 µM, first compound 0.0316 µM
[23] = second compound 1 µM, first compound 0.1 µM
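Also: spheroids exposed to compound for 7 days after 3 days of growth.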
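For viability, T/C in this document: 100% = DMSO vehicle control wells.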

NC1CCC(NC2CC2c2ccccc2)CC1 (configuration not stated) + Cc1c(S(C)(=O)=O)c(-c2cc(F)cc(N3CCN(c4ccc(NS(=O)(=O)c5ccc(NC(CCN6CCC(C(=O)OCCCP(=O)(O)O)CC6)CSc6ccccc6)c(S(=O)(=O)C(F)(F)F)c5)cc4)CC3)c2)c(-c2ccc(Cl)cc2)n1C(C)C
inactive: viability, T/C [6] 98.9% | viability, T/C [7] 109% | viability, T/C [8] 104% | viability, T/C [9] 95.6% | viability, T/C [10] 100% | viability, T/C [11] 98% | viability, T/C [12] 89.6% | viability, T/C [13] 99.5% | viability, T/C [14] 95% | viability, T/C [15] 88.3% | viability, T/C [16] 93.8% | viability, T/C [17] 95.5% | viability, T/C [18] 94.2% | viability, T/C [19] 96.6% | viability, T/C [20] 90.4% | viability, T/C [21] 91.5% | viability, T/C [22] 96.8% | viability, T/C [23] 90.6% | viability, T/C (second compound 3.16 µM, first compound 0.000316 µM) 98.9% | viability, T/C (second compound 3.16 µM, first compound 0.001 µM) 91.4% | viability, T/C (second compound 3.16 µM, first compound 0.00316 µM) 92.6% | viability, T/C (second compound 3.16 µM, first compound 0.01 µM) 86.3% | viability, T/C (second compound 3.16 µM, first compound 0.0316 µM) 96.8% | viability, T/C (second compound 3.16 µM, first compound 0.1 µM) 90.1% | viability, T/C (second compound 10 µM, first compound 0.000316 µM) 177% | viability, T/C (second compound 10 µM, first compound 0.001 µM) 173% | viability, T/C (second compound 10 µM, first compound 0.00316 µM) 160% | viability, T/C (second compound 10 µM, first compound 0.01 µM) 158% | viability, T/C (second compound 10 µM, first compound 0.0316 µM) 168% | viability, T/C (second compound 10 µM, first compound 0.1 µM) 181%
> 100 nM: IC50 [1] | IC50 [2] | IC50 [3] | IC50 [4] | IC50 [5]

NC(=O)C(=Cn1cnc(-c2cc(C(F)(F)F)cc(C(F)(F)F)c2)n1)c1cncnc1 + Cc1c(S(C)(=O)=O)c(-c2cc(F)cc(N3CCN(c4ccc(NS(=O)(=O)c5ccc(NC(CCN6CCC(C(=O)OCCCP(=O)(O)O)CC6)CSc6ccccc6)c(S(=O)(=O)C(F)(F)F)c5)cc4)CC3)c2)c(-c2ccc(Cl)cc2)n1C(C)C
31.2 nM: IC50 [3]
36.4 nM: IC50 [1]
30.5 nM: IC50 [4]
active: viability, T/C (second compound 0.1 µM, first compound 0.3 µM) 0.77% | viability, T/C (second compound 0.316 µM, first compound 0.0949 µM) 4.86% | viability, T/C (second compound 0.316 µM, first compound 0.3 µM) 0.51% | viability, T/C (second compound 1 µM, first compound 0.0949 µM) 3.7% | viability, T/C (second compound 1 µM, first compound 0.3 µM) 1.44% | viability, T/C (second compound 3.16 µM, first compound 0.0949 µM) 4.58% | viability, T/C (second compound 3.16 µM, first compound 0.3 µM) 0.43% | viability, T/C (second compound 10 µM, first compound 0.0949 µM) 4.73% | viability, T/C (second compound 10 µM, first compound 0.3 µM) 0.54%
inactive: viability, T/C (second compound 0.1 µM, first compound 0.000949 µM) 88.6% | viability, T/C (second compound 0.1 µM, first compound 0.003 µM) 91.2% | viability, T/C (second compound 0.1 µM, first compound 0.00949 µM) 84.6% | viability, T/C (second compound 0.1 µM, first compound 0.03 µM) 58.4% | viability, T/C (second compound 0.1 µM, first compound 0.0949 µM) 9.68% | viability, T/C (second compound 0.316 µM, first compound 0.000949 µM) 98.2% | viability, T/C (second compound 0.316 µM, first compound 0.003 µM) 93.3% | viability, T/C (second compound 0.316 µM, first compound 0.00949 µM) 86.8% | viability, T/C (second compound 0.316 µM, first compound 0.03 µM) 64.3% | viability, T/C (second compound 1 µM, first compound 0.000949 µM) 99.7% | viability, T/C (second compound 1 µM, first compound 0.003 µM) 94.6% | viability, T/C (second compound 1 µM, first compound 0.00949 µM) 87.1% | viability, T/C (second compound 1 µM, first compound 0.03 µM) 53.1% | viability, T/C (second compound 3.16 µM, first compound 0.000949 µM) 95.8% | viability, T/C (second compound 3.16 µM, first compound 0.003 µM) 90.7% | viability, T/C (second compound 3.16 µM, first compound 0.00949 µM) 93.4% | viability, T/C (second compound 3.16 µM, first compound 0.03 µM) 50.5% | viability, T/C (second compound 10 µM, first compound 0.000949 µM) 168% | viability, T/C (second compound 10 µM, first compound 0.003 µM) 168% | viability, T/C (second compound 10 µM, first compound 0.00949 µM) 168% | viability, T/C (second compound 10 µM, first compound 0.03 µM) 78.8%
39.4 nM: IC50 [2]
46.6 nM: IC50 [5]

NC1CCC(NC2CC2c2ccccc2)CC1 (configuration not stated) + CNC(C)C(=O)NC1CN(S(=O)(=O)c2cccc(S(=O)(=O)N3CCC4CCC(C(=O)NC(c5ccccc5)c5ccccc5)N4C(=O)C(NC(=O)C(C)NC)C3)c2)CCC2CCC(C(=O)NC(c3ccccc3)c3ccccc3)N2C1=O
> 100 nM: IC50 (curve of first compound, second compound 0.01 µM) | IC50 (curve of first compound, second compound 0.0316 µM) | IC50 [1] | IC50 [2] | IC50 [3]
inactive: viability, T/C (second compound 0.01 µM, first compound 0.000316 µM) 103% | viability, T/C (second compound 0.01 µM, first compound 0.001 µM) 106% | viability, T/C (second compound 0.01 µM, first compound 0.00316 µM) 92.3% | viability, T/C (second compound 0.01 µM, first compound 0.01 µM) 97.6% | viability, T/C (second compound 0.01 µM, first compound 0.0316 µM) 99.4% | viability, T/C (second compound 0.01 µM, first compound 0.1 µM) 96% | viability, T/C (second compound 0.0316 µM, first compound 0.000316 µM) 104% | viability, T/C (second compound 0.0316 µM, first compound 0.001 µM) 104% | viability, T/C (second compound 0.0316 µM, first compound 0.00316 µM) 101% | viability, T/C (second compound 0.0316 µM, first compound 0.01 µM) 100% | viability, T/C (second compound 0.0316 µM, first compound 0.0316 µM) 99.9% | viability, T/C (second compound 0.0316 µM, first compound 0.1 µM) 101% | viability, T/C [6] 100% | viability, T/C [7] 101% | viability, T/C [8] 100% | viability, T/C [9] 104% | viability, T/C [10] 108% | viability, T/C [11] 98.9% | viability, T/C [12] 101% | viability, T/C [13] 107% | viability, T/C [14] 106% | viability, T/C [15] 98.5% | viability, T/C [16] 96.8% | viability, T/C [17] 100% | viability, T/C [18] 106% | viability, T/C [19] 113% | viability, T/C [20] 108% | viability, T/C [21] 105% | viability, T/C [22] 94.7% | viability, T/C [23] 97.8%

C=CC(=O)N1CCN(c2nc(=O)n(-c3c(C)ccnc3C(C)C)c3nc(-c4c(O)cccc4F)c(F)cc23)C(C)C1 (configuration not stated)
> 10000 nM: IC50 (curve of compound)
inactive: viability, T/C (compound 0.0316 µM) 79% and 84.1% and 96.8% | viability, T/C (compound 0.1 µM) 81.7% and 85.2% and 87.5% | viability, T/C (compound 0.316 µM) 63.5% and 71.4% and 76% | viability, T/C (compound 1 µM) 71.2% and 69.4% and 84.9% | viability, T/C (compound 3.16 µM) 66.3% and 67.2% and 77.7% | viability, T/C (compound 10 µM) 60.9% and 59.4% and 66%
